Test results as given in paper PMC3526141 (Bioorganic & medicinal chemistry letters, 2012).

Target: Prostate-specific membrane antigen (PSMA) (Homo sapiens, UniProt Q04609)
Experiment: inhibition of purified PSMA enzymatic activity
Type: biochemical

Chain of Prostate-specific membrane antigen (PSMA) (Q04609 whole entry): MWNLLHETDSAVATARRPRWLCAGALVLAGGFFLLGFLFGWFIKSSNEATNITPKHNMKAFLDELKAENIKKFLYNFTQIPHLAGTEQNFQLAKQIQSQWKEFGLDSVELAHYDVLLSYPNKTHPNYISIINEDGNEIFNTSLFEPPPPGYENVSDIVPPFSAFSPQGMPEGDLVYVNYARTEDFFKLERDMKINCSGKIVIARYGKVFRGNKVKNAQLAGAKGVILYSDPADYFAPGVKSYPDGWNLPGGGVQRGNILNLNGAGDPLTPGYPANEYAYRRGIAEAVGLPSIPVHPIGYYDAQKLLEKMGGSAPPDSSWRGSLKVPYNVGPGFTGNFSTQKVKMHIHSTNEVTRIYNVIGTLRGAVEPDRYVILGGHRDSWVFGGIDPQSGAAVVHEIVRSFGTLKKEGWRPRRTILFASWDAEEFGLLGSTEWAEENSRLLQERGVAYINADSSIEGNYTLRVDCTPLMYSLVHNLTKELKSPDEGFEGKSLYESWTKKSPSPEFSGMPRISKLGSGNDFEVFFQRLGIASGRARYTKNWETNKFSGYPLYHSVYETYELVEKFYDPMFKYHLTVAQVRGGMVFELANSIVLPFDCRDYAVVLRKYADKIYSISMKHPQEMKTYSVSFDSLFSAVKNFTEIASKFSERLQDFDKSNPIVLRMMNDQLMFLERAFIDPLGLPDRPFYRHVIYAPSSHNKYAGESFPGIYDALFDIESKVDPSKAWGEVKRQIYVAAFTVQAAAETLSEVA

| Substance | IC50 |
| --- | --- |
| biotin-PEG12-CTT54 | 10 nM |
| biotin-PEG4-CTT54 | 2.53 nM |
| biotin-CTT54 | 1.21 nM |
